pIC50: −log10 of the molar value.
Test system: K98450-129-R-PDC complex spheroid growth, percent test/control
Assay: Anticancer human tumor K98450-129-R-PDC patient-derived colon adenocarcinoma cell line growth inhibition [RAS]
Details: for pIC50: curve of first compound; for viability, T/C: stronger effect = lower value
Outline: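 Tumour cells grown as complex spheroids with HUVEC endothelial cells and mesenchymal stem cells, treated with RAS pathway inhibitor combinations. Each agent spans half-log steps from near clinical Cmax, or 10 microM where Cmax is unknown.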
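Also: spheroids exposed to agents for seven days before the viability readout.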
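For viability, T/C in this document: luminescence used as a proxy for viable cell amount.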

CCc1c2c(nc3ccc(O)cc13)-c1cc3c(c(=O)n1C2)COC(=O)[C@]3(O)CC + C#Cc1c(F)ccc2cc(O)cc(-c3ncc4c(N5CC6CCC(C5)N6)nc(OCC56CCCN5CC(F)C6)nc4c3F)c12
pIC50 (second compound 0.0316 µM): 7.44 | pIC50 (second compound 0.1 µM): 7.36 | pIC50 (second compound 0.316 µM): 7.32 | pIC50 (second compound 1 µM): 7.33 | pIC50 (second compound 3.16 µM): 7.36 | pIC50 (second compound 10 µM): 7.48 | viability, T/C (second compound 0.0316 µM, first compound 0.000949 µM): 103% | viability, T/C (second compound 0.0316 µM, first compound 0.003 µM): 102% | viability, T/C (second compound 0.0316 µM, first compound 0.00949 µM): 75.7% | viability, T/C (second compound 0.0316 µM, first compound 0.03 µM): 52.2% | viability, T/C (second compound 0.0316 µM, first compound 0.0949 µM): 43.3% | viability, T/C (second compound 0.0316 µM, first compound 0.3 µM): 33.5% | viability, T/C (second compound 0.1 µM, first compound 0.000949 µM): 109% | viability, T/C (second compound 0.1 µM, first compound 0.003 µM): 101% | viability, T/C (second compound 0.1 µM, first compound 0.00949 µM): 80.5% | viability, T/C (second compound 0.1 µM, first compound 0.03 µM): 52.5% | viability, T/C (second compound 0.1 µM, first compound 0.0949 µM): 44.4% | viability, T/C (second compound 0.1 µM, first compound 0.3 µM): 33% | viability, T/C (second compound 0.316 µM, first compound 0.000949 µM): 108% | viability, T/C (second compound 0.316 µM, first compound 0.003 µM): 101% | viability, T/C (second compound 0.316 µM, first compound 0.00949 µM): 84.5% | viability, T/C (second compound 0.316 µM, first compound 0.03 µM): 54.4% | viability, T/C (second compound 0.316 µM, first compound 0.0949 µM): 43.6% | viability, T/C (second compound 0.316 µM, first compound 0.3 µM): 34% | viability, T/C (second compound 1 µM, first compound 0.000949 µM): 109% | viability, T/C (second compound 1 µM, first compound 0.003 µM): 100% | viability, T/C (second compound 1 µM, first compound 0.00949 µM): 86.8% | viability, T/C (second compound 1 µM, first compound 0.03 µM): 54% | viability, T/C (second compound 1 µM, first compound 0.0949 µM): 42.9% | viability, T/C (second compound 1 µM, first compound 0.3 µM): 36.9% | viability, T/C (second compound 3.16 µM, first compound 0.000949 µM): 95.7% | viability, T/C (second compound 3.16 µM, first compound 0.003 µM): 89.3% | viability, T/C (second compound 3.16 µM, first compound 0.00949 µM): 78.1% | viability, T/C (second compound 3.16 µM, first compound 0.03 µM): 51.9% | viability, T/C (second compound 3.16 µM, first compound 0.0949 µM): 43.6% | viability, T/C (second compound 3.16 µM, first compound 0.3 µM): 33.1% | viability, T/C (second compound 10 µM, first compound 0.000949 µM): 87.2% | viability, T/C (second compound 10 µM, first compound 0.003 µM): 84.3% | viability, T/C (second compound 10 µM, first compound 0.00949 µM): 75.5% | viability, T/C (second compound 10 µM, first compound 0.03 µM): 50.9% | viability, T/C (second compound 10 µM, first compound 0.0949 µM): 37.2% | viability, T/C (second compound 10 µM, first compound 0.3 µM): 33.8%

Nc1ccn(C2OC(CO)C(O)C2(F)F)c(=O)n1 (centres undefined) + C#Cc1c(F)ccc2cc(O)cc(-c3ncc4c(N5CC6CCC(C5)N6)nc(OCC56CCCN5CC(F)C6)nc4c3F)c12
pIC50 (second compound 0.0316 µM): 7.14 | pIC50 (second compound 0.1 µM): 7.06 | pIC50 (second compound 0.316 µM): 7.08 | pIC50 (second compound 1 µM): 7.13 | pIC50 (second compound 3.16 µM): 7.04 | pIC50 (second compound 10 µM): 7.06 | viability, T/C (second compound 0.0316 µM, first compound 0.00316 µM): 109% | viability, T/C (second compound 0.0316 µM, first compound 0.01 µM): 99.1% | viability, T/C (second compound 0.0316 µM, first compound 0.0316 µM): 65.4% | viability, T/C (second compound 0.0316 µM, first compound 0.1 µM): 44.8% | viability, T/C (second compound 0.0316 µM, first compound 0.316 µM): 35.6% | viability, T/C (second compound 0.0316 µM, first compound 1 µM): 29.6% | viability, T/C (second compound 0.1 µM, first compound 0.00316 µM): 115% | viability, T/C (second compound 0.1 µM, first compound 0.01 µM): 106% | viability, T/C (second compound 0.1 µM, first compound 0.0316 µM): 73.5% | viability, T/C (second compound 0.1 µM, first compound 0.1 µM): 47% | viability, T/C (second compound 0.1 µM, first compound 0.316 µM): 37.8% | viability, T/C (second compound 0.1 µM, first compound 1 µM): 29.7% | viability, T/C (second compound 0.316 µM, first compound 0.00316 µM): 107% | viability, T/C (second compound 0.316 µM, first compound 0.01 µM): 96.3% | viability, T/C (second compound 0.316 µM, first compound 0.0316 µM): 75.4% | viability, T/C (second compound 0.316 µM, first compound 0.1 µM): 44.4% | viability, T/C (second compound 0.316 µM, first compound 0.316 µM): 33.9% | viability, T/C (second compound 0.316 µM, first compound 1 µM): 30.5% | viability, T/C (second compound 1 µM, first compound 0.00316 µM): 101% | viability, T/C (second compound 1 µM, first compound 0.01 µM): 94.7% | viability, T/C (second compound 1 µM, first compound 0.0316 µM): 68.1% | viability, T/C (second compound 1 µM, first compound 0.1 µM): 43.3% | viability, T/C (second compound 1 µM, first compound 0.316 µM): 38% | viability, T/C (second compound 1 µM, first compound 1 µM): 31.9% | viability, T/C (second compound 3.16 µM, first compound 0.00316 µM): 95.7% | viability, T/C (second compound 3.16 µM, first compound 0.01 µM): 90% | viability, T/C (second compound 3.16 µM, first compound 0.0316 µM): 70.2% | viability, T/C (second compound 3.16 µM, first compound 0.1 µM): 46.9% | viability, T/C (second compound 3.16 µM, first compound 0.316 µM): 39.5% | viability, T/C (second compound 3.16 µM, first compound 1 µM): 31.1% | viability, T/C (second compound 10 µM, first compound 0.00316 µM): 92.5% | viability, T/C (second compound 10 µM, first compound 0.01 µM): 87.9% | viability, T/C (second compound 10 µM, first compound 0.0316 µM): 71.6% | viability, T/C (second compound 10 µM, first compound 0.1 µM): 46.6% | viability, T/C (second compound 10 µM, first compound 0.316 µM): 37.2% | viability, T/C (second compound 10 µM, first compound 1 µM): 32.4%

Reference: PubChem BioAssay AID2060891 (Molecular Pharmacology Branch, DTP, NCI, 2025)
